# What was measured:
# HCMV wild-type = assay: HCMV yield assay; assay type: cell-based, Human Cytomegalovirus; conditions: human foreskin fibroblasts, reduction of virus yield by 50%; for IC50: Human betaherpesvirus 5, Fibroblast, read-out: IC50 (ug/ml) HCMV
# Procedure: Yield assay. Monolayer cultures of human foreskin fibroblasts are infected with HCMV wild-type, typically at a multiplicity of infection equal to 0.2, in the presence of inhibitor compound (varying concentrations). At three days post-infection, total virus produced in these cultures (i.e. virus yield) is assessed by harvesting and titering the virus in 12-well plates of cultured human foreskin fibroblasts (done in the absence of inhibitor). Plaques are quantified at 2 weeks post-infection. An inhibitor of HCMV is identified by the reduction in titer of virus yield in the presence, compared to the titer in the absence of compound. In this assay, the relative anti-HCMV activity of an inhibitor is typically determined by calculating the IC50 or IC90 value, that is, the amount of compound required to reduce the virus yield by 50% or 90%, respectively. Table I describes IC50 data for compounds tested against HCMV.
# HSV-1 = assay: HSV Antiviral (ELISA) Assay; assay type: cell-based, herpes simplex virus type 1; conditions: Human alphaherpesvirus 1; Vero cells, HSV-1, about 24 hours post-infection; read-out: IC50 (ug/ml) HSV
# Procedure: Vero cells (ATCC #CCL-81) are plated on 96-well tissue cultugre plates at 3.5×10^4 cells per 100 μl tissue culture DMEM (Dulbecco's modified Eagle media) supplemented with 2% fetal bovine serum (FBS) in each well. After overnight incubation @ 37° C. (in 5% CO2) and 30 minutes prior to infection with HSV-1 (multiplicity of infection equal to 0.006), cells are either untreated, or treated with test compound (multiple concentrations) or reference standard drug control. After approximately 24 hours post-infection incubation @ 37° C. (in 5% CO2), cells are fixed for ELISA assay. The primary antibody is murine anti-HSV glycoprotein D monoclonal primary antibody and the secondary antibody is goat anti-mouse IgG linked to β-galactosidase. Thus the extent of viral replication is determined by assessing β-galactosidase activity by quantifying the generation of the 4-methyl umbelliferone fluorescent cleavage product after addition of the methyl umbelliferyl-β-D-galactoside (Sigma #M1633) substrate on a microfluorimeter (365 nm for excitation and 450 nm for emission). Antiviral activity (IC50) of the test compound is determined by comparing the flourescence obtained in absence of compound to that obtained in the presence of compound.
# VZV strain Ellen = assay: VZV Antiviral (ELISA) Assay; assay type: cell-based, varicella-zoster virus; conditions: human foreskin fibroblast cells, three days; for inhibition at 10 µg/mL / IC50: Human alphaherpesvirus 3, 72 h; for inhibition at 10 µg/mL: read-out: % inhibition 10 ug/ml VZV, 10 ug/ml; for IC50: read-out: IC50 (ug/ml) VZV
# Procedure: For the generation of stock VZV to be used in the assay, VZV strain Ellen (ATCC #VR-1367) is used to infect human foreskin fibroblast (HFF) cells at low multiplicity (less than 0.1) and incubated overnight at 37° C. in 5% CO2. After the overnight incubation, the mixture of uninfected and VZV-infected HFF infected cells are then harvested and added to each well of 96-well plates (3.5×10^4 cells in 100 μl DMEM supplemented with 2% FBS) which contain test compound or the reference standard drug control (in 100 μl DMEM supplemented with 2% FBS per well). These cells are incubated for three days at 37° C. in 5% CO2, then fixed for ELISA assay. The primary antibody is murine anti-VZV glycoprotein II monoclonal antibody (Applied Biosystems, Inc. #13-145-100) and the secondary antibody is goat anti-mouse IgG linked to β-galactosidase. Thus the extent of viral replication is determined by assessing β-galactosidase activity by quantifying the generation of the 4-methyl umbelliferone fluorescent cleavage product after addition of the methyl umbelliferyl-β-D-galactoside (Sigma #M1633) substrate on a microfluorimeter (365 nm for excitation and 450 nm for emission). Antiviral activity (IC50) of the test compound is determined by comparing the flourescence obtained in absence of compound to that obtained in the presence of compound.
Compound,IC50 (HCMV wild-type) [µg/mL],IC50 (HSV-1) [µg/mL],inhibition at 10 µg/mL (VZV strain Ellen) [%],IC50 (VZV strain Ellen) [µg/mL],IC50 (ug/ml) HCMV (HCMV wild-type) [µg/mL],IC50 (ug/ml) VZV (VZV strain Ellen) [µg/mL]
"COc1cc(OC)c(NC(=S)Nc2ccc(NC(=O)c3ccccc3C)nc2)cc1Cl [Example 283, N-[5-[[[(5-Chloro-2,4-dimethoxyphenyl)amino]thioxomethyl]amino]-2-pyridinyl]-2-methylbenzamide]",7,0.6,17,> 10,–,–
"COc1cc(OC)c(NC(=S)Nc2cccnc2NC(=O)c2ccco2)cc1Cl [Example 284, Furan-2-carboxylic acid {3-[3-(5-chloro-2,4-dimethoxy-phenyl)-thioureido]-pyridin-2-yl}-amide]",0.4,3,100,> 15,–,–
"COc1cc(OC)c(NC(=S)Nc2ccc(NC(=O)c3ccccc3F)nc2)cc1Cl [Example 289, N-{5-[3-(5-Chloro-2,4-dimethoxy-phenyl)-thioureido]-pyridin-2-yl}-2-fluoro-benzamide]",> 10,0.6,30,> 10,–,–
"COc1cc(OC)c(NC(=S)Nc2cccnc2NC(=O)c2csnn2)cc1Cl [Example 498, [1,2,3]Thiadiazole-4-carboxylic acid {3-[3-(5-chloro-2,4-dimethoxy-phenyl)-thioureido]-pyridin-2-yl}-amide]",0.14,6,14,> 10,–,–
"COc1cc(OC)c(NC(=S)Nc2ccc(NC(=O)c3ccccn3)nc2)cc1Cl [Example 499, Pyridine-2-carboxylic acid {5-[3-(5-chloro-2,4-dimethoxy-phenyl)-thioureido]-pyridin-2-yl}-amide]",3,5,25,> 10,–,–
"COc1cc(OC)c(NC(=S)Nc2ccc(NC(=O)c3ccccc3F)cn2)cc1Cl [Example 507, N-{6-[3-(5-Chloro-2,4-dimethoxy-phenyl)-thioureido]-pyridin-3-yl}-2-fluoro-benzamide]",1.2,10,90,4,–,–
"COc1cc(OC)c(NC(=S)Nc2ccc(NC(=O)c3ccco3)cn2)cc1Cl [Example 512, Furan-2-carboxylic acid {6-[3-(5-chloro-2,4-dimethoxy-phenyl)-thioureido]-pyridin-3-yl}-amide]",0.7,0.5,70,4,–,–
"COc1cc(OC)c(NC(=S)Nc2ccc(NC(=O)c3csnn3)cn2)cc1Cl [Example 514, [1,2,3]Thiadiazole-4-carboxylic acid {6-[3-(5-chloro-2,4-dimethoxy-phenyl)-thioureido]-pyridin-3-yl}-amide]",1.2,4,62,> 10,–,–
"O=C(Nc1ccc(NC(=S)NCc2cc(C(F)(F)F)cc(C(F)(F)F)c2)cn1)c1csnn1 [Example 815, N-{5-[({[3,5-bis(trifluoromethyl)benzyl]amino}carbothioyl)amino]-2-pyridinyl}-1,2,3-thiadiazole-4-carboxamide]",0.0024,–,–,> 7.5,–,–
"C[C@H](NC(=S)Nc1ccc(NC(=O)c2csnn2)nc1)c1cc(C(F)(F)F)cc(C(F)(F)F)c1 [Example 816, N-(5-{[({(1S)-1-[3,5-bis(trifluoromethyl)phenyl]ethyl}amino)carbothioyl]amino}-2-pyridinyl)-1,2,3-thiadiazole-4-carboxamide]",0.0015,–,–,> 7.5,–,–
"C[C@H](NC(=S)Nc1ccc(NC(=O)c2cscn2)nc1)c1cc(C(F)(F)F)cc(C(F)(F)F)c1 [Example 817, N-(5-{[({(1S)-1-[3,5-bis(trifluoromethyl)phenyl]ethyl}amino)carbothioyl]amino}-2-pyridinyl)-1,3-thiazole-4-carboxamide]",0.001,–,–,> 7.5,–,–
"CC(NC(=S)Nc1ccc(NC(=O)c2cscn2)nc1)c1cc(C(F)(F)F)ccc1F (stereo not shown) [Example 818, N-(5-{[({1-[2-fluoro-5-(trifluoromethyl)phenyl]ethyl}amino)carbothioyl]amino}-2-pyridinyl)-1,3-thiazole-4-carboxamide]",0.0022,–,–,> 7.5,–,–
"CC(NC(=S)Nc1ccc(NC(=O)c2cscn2)nc1)c1ccc(C(F)(F)F)cc1F (stereo not shown) [Example 819, N-(5-{[({1-[2-fluoro-4-(trifluoromethyl)phenyl]ethyl}amino)carbothioyl]amino}-2-pyridinyl)-1,3-thiazole-4-carboxamide]",0.0022,–,–,> 7.5,–,–
"CC(NC(=S)Nc1ccc(NC(=O)c2cscn2)nc1)c1cc(F)cc(C(F)(F)F)c1 (stereo not shown) [Example 820, N-(5-{[({1-[3-fluoro-5-(trifluoromethyl)phenyl]ethyl}amino)carbothioyl]amino}-2-pyridinyl)-1,3-thiazole-4-carboxamide]",0.0013,–,–,3.4,–,–
"C[C@H](NC(=O)Nc1ccc(NC(=O)c2cscn2)nc1)c1cc(C(F)(F)F)cc(C(F)(F)F)c1 [Example 821, N-(5-{[({(1S)-1-[3,5-bis(trifluoromethyl)phenyl]ethyl}amino)carbonyl]amino}-2-pyridinyl)-1,3-thiazole-4-carboxamide]",0.014,–,–,> 7.5,–,–
"CC(NC(=S)Nc1ccc(NC(=O)c2cscn2)nc1)c1cccc(Br)c1 (stereo not shown) [Example 822, N-{5-[({[1-(3-bromophenyl)ethyl]amino}carbothioyl)amino]-2-pyridinyl}-1,3-thiazole-4-carboxamide]",0.05,–,–,> 7.5,–,–
"CC(NC(=S)Nc1ccc(NC(=O)c2cscn2)nc1)c1ccccc1Br (stereo not shown) [Example 823, N-{5-[({[1-(2-bromophenyl)ethyl]amino}carbothioyl)amino]-2-pyridinyl}-1,3-thiazole-4-carboxamide]",0.05,–,–,> 7.5,–,–
"CC(NC(=S)Nc1ccc(NC(=O)c2cscn2)nc1)c1cccc(C(F)(F)F)c1 (stereo not shown) [Example 824, N-(5-{[({1-[3-(trifluoromethyl)phenyl]ethyl}amino)carbothioyl]amino}-2-pyridinyl)-1,3-thiazole-4-carboxamide]",0.004,–,–,3.2,–,–
"CC(NC(=S)Nc1ccc(NC(=O)c2cscn2)nc1)c1ccc(Cl)c(C(F)(F)F)c1 (stereo not shown) [Example 825, N-(5-{[({1-[4-chloro-3-(trifluoromethyl)phenyl]ethyl}amino)carbothioyl]amino}-2-pyridinyl)-1,3-thiazole-4-carboxamide]",0.003,–,–,6.12,–,–
"CC(NC(=S)Nc1ccc(NC(=O)c2cscn2)nc1)c1ccc(Cl)c(F)c1 (stereo not shown) [Example 826, N-{5-[({[1-(4-chloro-3-fluorophenyl)ethyl]amino}carbothioyl)amino]-2-pyridinyl}-1,3-thiazole-4-carboxamide]",0.02,–,–,0.86,–,–
"CC(NC(=S)Nc1ccc(NC(=O)c2cscn2)nc1)c1ccc(Cl)cc1F (stereo not shown) [Example 827, N-{5-[({[1-(4-chloro-2-fluorophenyl)ethyl]amino}carbothioyl)amino]-2-pyridinyl}-1,3-thiazole-4-carboxamide]",0.026,–,–,–,–,–
"N-(6-{[({(1S)-1-[3,5-bis(trifluoromethyl)phenyl]ethyl}amino)carbothioyl]amino}-3-pyridinyl)-1,2,3-thiadiazole-4-carboxamide [Example 829]",–,–,–,–,0.08,>7.5
"N-{6-[({[1-(4-fluorophenyl)ethyl]amino}carbothioyl)amino]-3-pyridinyl}-1,2,3-thiadiazole-4-carboxamide [Example 828]",–,–,–,–,0.45,>7.5
